# Laboratory results: US12678412B2, “Substituted tolans for the modulation of microbial colonization” (BioMendics, LLC, priority 2017, dated 2026)
# Assays:
# Assay type in all cases: cell-based
# S. typhimurium TA98 = assay: Dose range finding colony forming assay, strain TA98 with metabolic activation
# Procedure: (§1) A series of dose range finding assays were performed with five bacterial strains, S. typhimurium TA97a, TA98, TA100, TA1535, and E. coli WP2 uvrA pKM101, with and without metabolic activation at three plates per dose. The following doses, along with positive and negative controls, were tested: 5000, 2500, 1250, 500, 250, 125, 50, 20, 10, 5, 2, 1, and 0.2 μg/plate. The plates were evaluated for toxicity (a decrease in plate counts with increasing dose and/or a visible thinning of the background lawn) and for precipitation of the test article. Metabolic activation was included in some samples by adding phenobarbital/benzoflavone-induced rat liver S9 fractions with cofactors (S9 mix). Prior to use, freshly thawed aliquots of rat liver S9 were mixed with a sterile cofactor mix. The S9 mix contains a 10% liver S9 concentration and was refrigerated or stored on ice until used. When testing with metabolic activation, the S9 mix was used in the assay tube in place of phosphate buffer.
# (§2) Dosing formulations were prepared to deliver all doses in a constant volume of 0.1 mL. The highest dose was prepared from test article weighed to the nearest 0.1 mg and the remaining formulations were prepared as serial dilutions from the high dose stock formulation. Using a permanent marking pen or computer printed labels, assay plates were labeled with the project and study numbers and the date. Assay plates and tubes were labeled with a unique identifier, which was used to match the assay tubes with the properly identified minimal glucose agar plate.
# (§3) The pre-incubation method was used to perform the assay. The assay mix consisted of 0.1 mL of the test article formulation or control article, 0.5 mL S9 mix or phosphate buffer, and 0.1 mL of bacterial culture. Assay tubes were incubated at 37±1° C. with gentle agitation for 20±1 minutes, then 2.0-2.5 mL top agar was added to the assay mix and the top agar/assay mix poured onto appropriately labeled minimal glucose agar plates. Once the top agar hardened, the plates were inverted and incubated at 37±1° C. for 48±2 hours. Plates were counted with the Sorcerer (v. 2.2)/Ames Study Manager (v. 1.2.4) system from Perceptive Instruments (Suffolk, UK). With this system, plate counts are automatically transferred from the plate imager (Sorcerer) to a Study Manager spreadsheet, and the data are stored in a secure manner on an Oracle database. Some plates were hand counted, e.g., if sample precipitate interferes with automatic counting or toxicity results in the formation of microcolonies, in which case, counts for these plates were entered into the spreadsheet manually. Plates were scored also with the extent of colonization by a post fix code.
# S. typhimurium TA1535 = assay: Dose range finding colony forming assay, strain TA1535 without metabolic activation
# Procedure: as §1, §2, §3
# [1] = tested on: Methicillin Resistant Staphylococcus aureus (MRSA USA 300); assay: Colony forming assay, spread plate, MRSA USA 300; conditions: for Reduction of MRSA USA 300 counts: 24 h
# Procedure: A fresh culture of pathogenic isolate was used in these examples. The bacterial strains used were Methicillin Resistant Staphylococcus aureus (MRSA USA 300), Pseudomonas aeruginosa ATCC 27312, and Candida albicans ATCC 64550.
# FIG. 5 illustrates the spread plate method used in these examples. In sum, agar plates were made, bacteria were diluted to 10^6 or 10^8 CFU/mL, bacteria and drug were mixed together and then plated. Glass spreading beads were used because they give a better bacterial spread. Plates were incubated for 24 hrs then the colonies that formed were counted.
# Proliferating cultures of Methicillin Resistant Staphylococcus aureus (MRSA, USA 300) were used in a colony forming assay. Freeze-dried bacteria culture of MRSA was recovered by swabbing a 3-cm diameter growth area and resuspending it to obtain a final inoculum suspension of approximately 10^8 CFU/mL. The concentration was confirmed using historical optical density measurements. The total compound BM3103 was suspended in a 70% v/v alcohol gel formulation (Formulation A) before the introduction of bacteria, with the vehicle consisting of solely the 70% v/v alcohol gel. MRSA at 10^8 CFU/mL was challenged with equal parts of a high, medium, and low dose of BM3103, vehicle formulation, positive control (Tobramycin, 600 μg/mL), or untreated control (phosphate buffered saline). The inoculum was plated on Tryptic Soy Broth plates at 37° C. for 24 h. Plates were photographed and counted. The treatment for each experiment was done in triplicate, and the experiment was repeated three times, for a total of 9 plates per group.
# Colony counts for each treatment were tabulated and the Log of the colony forming units/mL (Log CFU/mL) was determined. The mean and standard deviation of the Log CFU/mL were calculated for each treatment. A one-way analysis of variance was performed at a 95% confidence interval.
compound,measurement,setting,value
"COc1ccc(C#Cc2ccc(O)cc2)cc1 [BM3103, 4-hydroxy-4′-methoxytolan]",Colony forming units/plate,S. typhimurium TA98; 1 μg/plate,8.0 colony forming units/plate
same,Individual colony counts,S. typhimurium TA98; 1 μg/plate,8
same,Colony forming units/plate,S. typhimurium TA98; 2 μg/plate,18.0 colony forming units/plate
same,Individual colony counts,S. typhimurium TA98; 2 μg/plate,18
same,Colony forming units/plate,S. typhimurium TA98; 5 μg/plate,16.0 colony forming units/plate
same,Individual colony counts,S. typhimurium TA98; 5 μg/plate,16
same,Colony forming units/plate,S. typhimurium TA98; 10 μg/plate,16.0 colony forming units/plate
same,Individual colony counts,S. typhimurium TA98; 10 μg/plate,16
same,Colony forming units/plate,S. typhimurium TA98; 20 μg/plate,0.0 colony forming units/plate
same,Individual colony counts,S. typhimurium TA98; 20 μg/plate,0
same,Colony forming units/plate,S. typhimurium TA98; 50 μg/plate,0.0 colony forming units/plate
same,Individual colony counts,S. typhimurium TA98; 50 μg/plate,0
same,Colony forming units/plate,S. typhimurium TA98; 125 μg/plate,0.0 colony forming units/plate
same,Individual colony counts,S. typhimurium TA98; 125 μg/plate,0
same,Colony forming units/plate,S. typhimurium TA98; 250 μg/plate,0.0 colony forming units/plate
same,Individual colony counts,S. typhimurium TA98; 250 μg/plate,0
same,Colony forming units/plate,S. typhimurium TA98; 500 μg/plate,0.0 colony forming units/plate
same,Individual colony counts,S. typhimurium TA98; 500 μg/plate,0
same,Plate postfix code (individual colony counts),S. typhimurium TA98; 500 μg/plate,A P
same,Colony forming units/plate,S. typhimurium TA98; 1250 μg/plate,0.0 colony forming units/plate
same,Individual colony counts,S. typhimurium TA98; 1250 μg/plate,0
same,Plate postfix code (individual colony counts),S. typhimurium TA98; 1250 μg/plate,A P
same,Colony forming units/plate,S. typhimurium TA98; 2500 μg/plate,0.0 colony forming units/plate
same,Individual colony counts,S. typhimurium TA98; 2500 μg/plate,0
same,Plate postfix code (individual colony counts),S. typhimurium TA98; 2500 μg/plate,A P
same,Colony forming units/plate,S. typhimurium TA98; 5000 μg/plate,0.0 colony forming units/plate
same,Individual colony counts,S. typhimurium TA98; 5000 μg/plate,0
same,Plate postfix code (individual colony counts),S. typhimurium TA98; 5000 μg/plate,A P
same,Colony forming units/plate,S. typhimurium TA1535; 0.2 μg/plate,12.0 colony forming units/plate
same,Individual colony counts,S. typhimurium TA1535; 0.2 μg/plate,12
same,Colony forming units/plate,S. typhimurium TA1535; 1 μg/plate,11.0 colony forming units/plate
same,Individual colony counts,S. typhimurium TA1535; 1 μg/plate,11
same,Colony forming units/plate,S. typhimurium TA1535; 2 μg/plate,10.0 colony forming units/plate
same,Individual colony counts,S. typhimurium TA1535; 2 μg/plate,10
same,Colony forming units/plate,S. typhimurium TA1535; 5 μg/plate,6.0 colony forming units/plate
same,Individual colony counts,S. typhimurium TA1535; 5 μg/plate,6
same,Colony forming units/plate,S. typhimurium TA1535; 10 μg/plate,0.0 colony forming units/plate
same,Individual colony counts,S. typhimurium TA1535; 10 μg/plate,0
same,Plate postfix code (individual colony counts),S. typhimurium TA1535; 10 μg/plate,A T
same,Colony forming units/plate,S. typhimurium TA1535; 20 μg/plate,0.0 colony forming units/plate
same,Individual colony counts,S. typhimurium TA1535; 20 μg/plate,0
same,Colony forming units/plate,S. typhimurium TA1535; 50 μg/plate,0.0 colony forming units/plate
same,Individual colony counts,S. typhimurium TA1535; 50 μg/plate,0
same,Colony forming units/plate,S. typhimurium TA1535; 125 μg/plate,0.0 colony forming units/plate
same,Individual colony counts,S. typhimurium TA1535; 125 μg/plate,0
same,Colony forming units/plate,S. typhimurium TA1535; 250 μg/plate,0.0 colony forming units/plate
same,Individual colony counts,S. typhimurium TA1535; 250 μg/plate,0
same,Colony forming units/plate,S. typhimurium TA1535; 500 μg/plate,0.0 colony forming units/plate
same,Individual colony counts,S. typhimurium TA1535; 500 μg/plate,0
same,Colony forming units/plate,S. typhimurium TA1535; 1250 μg/plate,0.0 colony forming units/plate
same,Individual colony counts,S. typhimurium TA1535; 1250 μg/plate,0
same,Plate postfix code (individual colony counts),S. typhimurium TA1535; 1250 μg/plate,A P
same,Colony forming units/plate,S. typhimurium TA1535; 2500 μg/plate,0.0 colony forming units/plate
same,Individual colony counts,S. typhimurium TA1535; 2500 μg/plate,0
same,Plate postfix code (individual colony counts),S. typhimurium TA1535; 2500 μg/plate,A P
same,Colony forming units/plate,S. typhimurium TA1535; 5000 μg/plate,0.0 colony forming units/plate
same,Individual colony counts,S. typhimurium TA1535; 5000 μg/plate,0
same,Plate postfix code (individual colony counts),S. typhimurium TA1535; 5000 μg/plate,A P
same,Reduction in MRSA USA 300 counts compared to the positive control,"[1]; all three doses (0.05, 0.25, 0.5% w/v) vs Tobramycin 600 μg/mL",significantly greater reduction
same,Reduction of MRSA USA 300 counts,"[1]; high dose 0.5% w/v, 22 mM, alcohol gel",approximately 8 fold
same,Reduction of MRSA USA 300 counts,"[1]; low dose 0.05% w/v, 2 mM, 70% v/v alcohol gel (Formulation A), compared to vehicle and untreated controls",over 6 fold
same,Reduction of MRSA USA 300 counts,"[1]; medium dose 0.25% w/v, 11 mM, alcohol gel, compared to vehicle and untreated control",7 fold
